Source: DBAASP
Values after ≈ are worked out from the molar mass of the structure shown. Values joined by “and” are separate entries in the source; they are usually repeats but may differ in a detail not shown here. Identical values can stand only once. Each block holds one compound with its values, some of them ahead of it.

Key:
Experiment in all cases: ≥ marks a high value that may be exact or a test limit, other limits are often not marked, values filed in µg/mL are converted to µM
[1] = system: Staphylococcus aureus ATCC 25923
[2] = system: Staphylococcus aureus CIB 85462
[3] = system: Candida albicans CIB 45437
[4] = system: Escherichia coli CIB 84492
[5] = system: Escherichia coli ATCC 25922
[6] = system: Escherichia coli ATCC 25726
Staphylococcus aureus = system: Staphylococcus aureus
[7] = system: Staphylococcus aureus ATCC 2576
Shigella dysenteriae = system: Shigella dysenteriae
[8] = system: Shigella dysenteriae ATCC 2932
[9] = system: Escherichia coli ATCC 25629
[10] = system: Candida albicans ATCC 3007
Escherichia coli = system: Escherichia coli
[11] = system: Staphylococcus aureus 710A
[12] = system: Staphylococcus aureus LT1334
[13] = system: Stenotrophomonas maltophilia
Candida albicans = system: Candida albicans
[14] = system: Staphylococcus epidermidis LT1324
[15] = system: Pseudomonas aeruginosa ATCC 27853
Citrobacter freundii = system: Citrobacter freundii
Escherichia coli ML-35 = system: Escherichia coli ML-35
[16] = system: Staphylococcus aureus LT1338
Bacillus megaterium Bm11 = system: Bacillus megaterium Bm11
[17] = system: Salmonella enterica subsp. enterica serovar Typhimurium ATCC 14028
Staphylococcus simulans = system: Staphylococcus simulans
Klebsiella pneumoniae = system: Klebsiella pneumoniae
Enterococcus faecium = system: Enterococcus faecium
Micrococcus luteus = system: Micrococcus luteus
[18] = system: Staphylococcus haemolyticus
Pseudomonas aeruginosa = system: Pseudomonas aeruginosa
[19] = system: Klebsiella pneumoniae ATCC 700603
[20] = system: Acinetobacter baumannii I NM8
[21] = system: Candida albicans ATCC 90028
[22] = system: Staphylococcus aureus NCTC 8325
Escherichia coli D21 = system: Escherichia coli D21
[23] = system: Staphylococcus aureus KCTC 1621
[24] = system: Salmonella typhimurium KCTC 1926
[25] = system: Staphylococcus epidermidis ATCC 12228
[26] = system: Staphylococcus epidermidis KCTC 1917
[27] = system: Staphylococcus aureus Cowan 1
Cryptococcus neoformans = system: Cryptococcus neoformans
Serratia marcescens = system: Serratia marcescens
[28] = system: Escherichia coli O18:K1:H7 Bort
[29] = system: Bacillus subtilis KCTC 3068
[30] = system: Serratia marcescens ATCC 8100
[31] = system: Pseudomonas aeruginosa KCTC 1637
[32] = system: Escherichia coli KCTC 1682
Streptococcus agalactiae = system: Streptococcus agalactiae

- MIC [1]: 3.12 µM (≈ 7.99 µg/mL)
- MIC [2]: 12.5 µM (≈ 32 µg/mL)
- MIC [3]: ≥ 50 µM
- MIC [4]: 25 µM (≈ 64 µg/mL)
- MIC [5]: 50 µM (≈ 128 µg/mL)
- MIC [6]: ≥ 48.8 µM
Compound: CC[C@H](C)[C@@H]1NC(=O)[C@H](C)NC(=O)[C@@H](NC(=O)[C@H](Cc2ccccc2)NC(=O)[C@@H](NC(=O)[C@@H](NC(=O)[C@@H]2CCCN2C(=O)[C@@H](NC(=O)[C@@H](NC(=O)[C@H](CCC(N)=O)NC(=O)[C@H](C)NC(=O)[C@H](C)NC(=O)[C@@H](NC(=O)[C@H](CCCN=C(N)N)NC(=O)[C@H](CC(C)C)NC(=O)[C@@H](NC(=O)[C@H](C)NC(=O)[C@@H]2CCCN2C(=O)[C@H](CC(C)C)NC(=O)[C@@H](N)Cc2ccccc2)C(C)C)C(C)C)C(C)C)C(C)C)[C@@H](C)O)C(C)C)CSSC[C@@H](C(=O)O)NC(=O)[C@H](CCCCN)NC(=O)[C@H](CCCCN)NC(=O)[C@H](CO)NC1=O [FLPAVLRVAAQVVPTVFCAISKKC]

- MIC (Staphylococcus aureus): 1.93 µM (≈ 5 µg/mL)
- MIC [7]: 0.463 µM (≈ 1.2 µg/mL)
- MIC (Shigella dysenteriae): 2.89 µM (≈ 7.5 µg/mL)
- MIC [9]: 4.82 µM (≈ 12.5 µg/mL)
- MIC [10]: 5.78 µM (≈ 15 µg/mL)
- MIC (Escherichia coli): 5.78 µM (≈ 15 µg/mL)
Compound: CSCC[C@H](NC(=O)[C@H](CCCCN)NC(=O)[C@@H]1CCCN1C(=O)[C@H](CC(C)C)NC(=O)[C@@H](N)Cc1ccccc1)C(=O)N[C@@H](CO)C(=O)N[C@H](C(=O)N[C@@H](CCCCN)C(=O)N[C@@H](CC(C)C)C(=O)N[C@@H](CCCN=C(N)N)C(=O)N[C@H](C(=O)N1CCC[C@H]1C(=O)N[C@@H](Cc1ccc(O)cc1)C(=O)N[C@@H](CCCN=C(N)N)C(=O)N[C@@H](CCCN=C(N)N)C(=O)NCC(=O)N[C@H](C(=O)N[C@@H](CCCCN)C(=O)N[C@@H](CC(=O)O)C(=O)N[C@@H](Cc1ccc(O)cc1)C(=O)N[C@@H](Cc1cnc[nH]1)C(=O)O)[C@@H](C)O)C(C)C)[C@@H](C)O [FLPKMSTKLRVPYRRGTKDYH]
- MIC [8]: 2.89 µM (≈ 7.5 µg/mL)

Compound: CC[C@H](C)[C@H](NC(=O)[C@H](CCCN=C(N)N)NC(=O)[C@H](C)NC(=O)[C@H](CC(C)C)NC(=O)[C@H](CCCN=C(N)N)NC(=O)CNC(=O)[C@H](Cc1ccccc1)NC(=O)[C@@H](NC(=O)[C@H](CO)NC(=O)CNC(=O)[C@H](CC(C)C)NC(=O)CN)C(C)C)C(=O)N[C@@H](CC(C)C)C(=O)NCC(=O)N[C@@H](CCCN=C(N)N)C(=O)N[C@H](C(=O)N[C@H](C(=O)N1CCC[C@H]1C(=O)N[C@@H](CCCCN)C(=O)N[C@H](C(N)=O)C(C)C)[C@@H](C)CC)C(C)C [GLGSVFGRLARILGRVIPKV]
- MIC [11]: 4 µM (≈ 8.43 µg/mL)
- MIC (Staphylococcus aureus): 2 µM (≈ 4.22 µg/mL)
- MIC [12]: 1.5 µM (≈ 3.16 µg/mL)
- MIC [13]: 2 µM (≈ 4.22 µg/mL)
- MIC (Candida albicans): > 4 µM
- MIC [14]: 2 µM (≈ 4.22 µg/mL)
- MIC [15]: 8 µM (≈ 16.9 µg/mL)
- MIC (Citrobacter freundii): 2 µM (≈ 4.22 µg/mL)
- MIC (Escherichia coli ML-35): 2 µM (≈ 4.22 µg/mL)
- MIC [16]: 3 µM (≈ 6.32 µg/mL)
- MIC (Bacillus megaterium Bm11): 2 µM (≈ 4.22 µg/mL)
- MIC [17]: 8 µM (≈ 16.9 µg/mL)
- MIC (Staphylococcus simulans): 2 µM (≈ 4.22 µg/mL)
- MIC (Klebsiella pneumoniae): 2 µM (≈ 4.22 µg/mL)
- MIC (Enterococcus faecium): 2 µM (≈ 4.22 µg/mL)
- MIC (Micrococcus luteus): 0.5 µM (≈ 1.05 µg/mL)
- MIC [18]: 2 µM (≈ 4.22 µg/mL)
- MIC (Escherichia coli): 2.83 µM (≈ 5.96 µg/mL)
- MIC (Pseudomonas aeruginosa): 4 µM (≈ 8.43 µg/mL)

- MIC [19]: > 50 µM
- MIC [1]: 160 µM and 100 µM
- MIC [20]: 25 µM (≈ 50 µg/mL)
- MIC [21]: ≥ 100 µM
- MIC [22]: ≥ 100 µM
- MIC [5]: > 100 µM
- MIC [6]: ≥ 100 µM
Compound: CC[C@H](C)[C@H](NC(=O)[C@@H](NC(=O)[C@H](C)NC(=O)[C@H](CCCCN)NC(=O)[C@H](C)NC(=O)[C@@H](NC(=O)[C@H](CCCCN)NC(=O)CNC(=O)[C@H](CC(C)C)NC(=O)[C@H](C)NC(=O)[C@@H](NC(=O)CNC(=O)[C@H](C)NC(=O)[C@H](CCCCN)NC(=O)[C@@H](NC(=O)[C@H](C)NC(=O)[C@H](CCSC)NC(=O)CN)[C@@H](C)O)[C@@H](C)O)C(C)C)C(C)C)C(=O)NCC(=O)N[C@@H](C)C(=O)N[C@@H](C)C(=O)N[C@@H](CC(C)C)C(N)=O [GMATKAGTALGKVAKAVIGAAL]

- MIC (Escherichia coli D21): 0.25 µM (≈ 0.821 µg/mL)
- MIC (Staphylococcus aureus): 4 µM (≈ 13.1 µg/mL)
- MIC [23]: 4 µM (≈ 13.1 µg/mL)
- MIC (Candida albicans): 8 µM (≈ 26.3 µg/mL)
- MIC [1]: 2 µM (≈ 6.56 µg/mL)
- MIC [24]: 1 µM (≈ 3.28 µg/mL)
- MIC [25]: 1 µM (≈ 3.28 µg/mL)
- MIC [26]: 2 µM (≈ 6.56 µg/mL)
- MIC [27]: 2 µM (≈ 6.56 µg/mL)
- MIC [15]: 1 µM (≈ 3.28 µg/mL)
- MIC (Cryptococcus neoformans): 4 µM (≈ 13.1 µg/mL)
- MIC (Serratia marcescens): 2.83 µM (≈ 9.28 µg/mL)
- MIC (Escherichia coli ML-35): 1 µM (≈ 3.28 µg/mL)
- MIC (Bacillus megaterium Bm11): 2 µM (≈ 6.56 µg/mL)
- MIC [17]: 1 µM (≈ 3.28 µg/mL)
- MIC [28]: 0.5 µM (≈ 1.64 µg/mL)
- MIC [29]: 2 µM (≈ 6.56 µg/mL)
- MIC [30]: 2 µM (≈ 6.56 µg/mL)
- MIC [31]: 2 µM (≈ 6.56 µg/mL)
- MIC (Enterococcus faecium): 5.66 µM (≈ 18.6 µg/mL)
- MIC [5]: 1 µM (≈ 3.28 µg/mL)
- MIC [32]: 4 µM (≈ 13.1 µg/mL)
- MIC (Streptococcus agalactiae): 2.83 µM (≈ 9.28 µg/mL)
Compound: CC[C@H](C)[C@H](NC(=O)[C@@H](NC(=O)[C@@H]1CCCN1C(=O)[C@H](CO)NC(=O)[C@H](CC(C)C)NC(=O)[C@H](CCCCN)NC(=O)[C@H](CCCCN)NC(=O)[C@H](Cc1ccccc1)NC(=O)[C@H](CC(C)C)NC(=O)[C@H](CCCCN)NC(=O)[C@H](CCCCN)NC(=O)[C@H](Cc1ccccc1)NC(=O)[C@H](CCCCN)NC(=O)[C@H](CCCCN)NC(=O)[C@H](CCCN=C(N)N)NC(=O)[C@H](Cc1ccccc1)NC(=O)[C@H](CCCN=C(N)N)NC(=O)[C@H](CCCCN)NC(=O)[C@H](Cc1ccccc1)NC(=O)[C@H](CCCN=C(N)N)NC(=O)CN)C(C)C)C(=O)N1CCC[C@H]1C(=O)N[C@@H](CC(C)C)C(=O)N[C@@H](CC(C)C)C(=O)N[C@@H](Cc1cnc[nH]1)C(=O)N[C@@H](CC(C)C)C(=O)NCC(N)=O [GRFKRFRKKFKKLFKKLSPVIPLLHLG]
